Patent US11213527B2, “Inhibitory effect of low molecular weight compound on cancer and fibrosis” (NATIONAL UNIVERSITY CORPORATION TOTTORI UNIVERSITY, priority 2014, dated 2022)

Assays:
Type in all cases: cell-based, human
[1] = test system: CD44-positive HuH7 cells (cancer stem cells); experiment: Inhibitory effect on cancer stem cells (FACS analysis, CD44); details: IC-2 50 μM, PN3-13 10 μM, 5-FU 0.5 μM, two days, vs DMSO control
Method: The following protocol was used to investigate an inhibitory effect of each low-molecular-weight compound on cancer stem cells. CD44, a cancer stem cell marker, was used as an index. HuH7 cells at 70 to 90% confluency were collected and 1.5×10^6 cells were seeded on a 10-cm dish (TPP Techno Plastic Products AG, Trasadingen, Switzerland). After 15 hours, the cells were treated with each of Hexachlorophene (15 μM), ICG-001 (15 μM), PKF118-310 (5 μM), IC-2 (50 μM), PN3-13 (10 μM), and 5-FU (0.5 μM) and were incubated at 37° C. DMSO, which was a solvent for each of the low-molecular-weight compounds and anti-cancer drugs, was used as a control. Two days after the chemical treatment, the cells on a dish were collected. Next, the cells were centrifuged at 1000 rpm for 5 min at 4° C. to remove a supernatant. Then, the cells were washed twice with 1 mL of 0.5% FBS/2 mM EDTA/PBS. After that, the cells were suspended in 500 μL of 5% BSA/0.5% FBS/2 mM EDTA/PBS and blocked once for 15 min at 4° C.
Next, 5 μL of an anti-human CD44 monoclonal antibody (Cell Signaling Technology Inc., Danvers, Mass., USA) was added. Then, the cells were suspended and a primary antibody reaction was performed in a dark room for 10 min at 4° C. After that, the cells were washed 3 times with 1 mL of PBS. […] Note that a significant difference was evaluated by using Student's t-test (two-tailed). […]

[2] = test system: liver cancer cell line HLF (CD90); experiment: FACS analysis of CD90-expressing cells; details: 0.5 μM 5-FU, 50 μM IC-2, two days, DMSO 21.8%
Method: A liver cancer cell line HLF was seeded at 1.5×10^6 cells/dish on 10-cm dishes. Next, the cells were cultured at 37° C. and 5% CO2. After 24 hours, 1% DSMO, 0.5 μM 5-FU, or 50 μM IC-2 was added thereto and the cells were further incubated. Two days after the chemical treatment, the cells were harvested. Then, the cells were blocked in 0.5% BSA/0.5% FBS/2 mM EDTA/PBS. Subsequently, 5 μL of an APC-labeled mouse anti-human CD90 antibody (BD Biosciences, San Jose, Calif., USA) was added to 500 μL of a cell suspension and the resulting mixture was resuspended and incubated at 4° C. for 10 min to carry out a primary antibody reaction. After the antibody reaction, the cells were washed twice with 0.5% FBS/2 mM EDTA/PBS and once with 5% FBS/2 mM EDTA/DMEM. Next, the cells were resuspended in 500 μL of 5% FBS/2 mM EDTA/PBS. Then, 1 μg/mL of propidium iodide was added thereto. After that, the mixture was made to pass through a tube with a 40-μm mesh filter. Finally, a Beckman Coulter-MoFlo XDP was used to analyze CD90-expressing cells. […] The concentration of IC-2 was determined on the basis of a concentration at which a Wnt/β-catenin signal was inhibited.

[3] = test system: liver cancer cell line HepG2 (EpCAM); experiment: FACS analysis of EpCAM-expressing cells; details: 0.5 μM 5-FU, 50 μM IC-2, two days, DMSO 76.2%
Method: A liver cancer cell line HepG2 was seeded at 1.5×10^6 cells/dish on 10-cm dishes. Next, the cells were cultured at 37° C. and 5% CO2. After 24 hours, 1% DSMO, 0.5 μM 5-FU, or 50 μM IC-2 was added thereto and the cells were further incubated. Then, the cells were harvested at two days after the chemical treatment. Meanwhile, the cells were blocked in 0.5% BSA/0.5% FBS/2 mM EDTA/PBS. Subsequently, 0.3 μL of an anti-human EpCAM monoclonal antibody (Cell Signaling Technology Inc., Danvers, Mass., USA) was added to 500 μL of a cell suspension and the resulting mixture was resuspended and incubated at 4° C. for 10 min to carry out a primary antibody reaction. After the primary antibody reaction, the cells were washed 3 times with 1 mL of PBS. After 1.0 μg of an Alexa 488-labeled goat anti-mouse IgG antibody (Life Technologies Corp., Carlsbad, Calif., USA) was added, the mixture was resuspended and a secondary antibody reaction was performed in a dark room for 10 min at 4° C. Thereafter, the cells were washed twice with 5% FBS/2 mM EDTA/PBS and once with 5% FBS/2 mM EDTA/DEME. Next, the cells were resuspended in 500 μL of 5% FBS/2 mM EDTA/PBS. Then, 1 μg/mL of propidium iodide was added thereto. After that, the mixture was made to pass through a tube with a 40-μm mesh filter. Finally, a Beckman Coulter-MoFlo XDP was used to analyze EpCAM-expressing cells.

CD44^high DLD-1 cells = experiment: Inhibitory effect on cancer stem cells in colon cancer (CD44 FACS); details: IC-2 50 μM, 5-FU 0.5, 5 μM, 48 hours, vs control
Method: First, 1×10^6 DLD-1 cells were seeded on a 10-cm dish. After 24 hours, the cells were treated with 5-FU (0.5, 5 μM) or IC-2 (50 μM). After additional 48 hours, the cells were harvested. An anti-human CD44 antibody (Abcam Ltd., Cambridge, UK) was used as a primary antibody and an Alexa 488-labeled goat anti-mouse IgG antibody (Life Technologies Corp., Carlsbad, Calif., USA) was then used. After that, analysis was performed by using a MoFlo XDP (Beckman Coulter Inc., Fullerton, Calif.).

O=c1[nH]cc(F)c(=O)[nH]1 [5-FU, reference compound]
number of cancer stem cells (CD44-positive cells) [1]: rather increased the number of cancer stem cells | proportion of the CD90-expressing cells [2]: 24.1% | proportion of the EpCAM-expressing cells [3]: 81.4% | proportion of CD44^high cells (CD44^high DLD-1 cells): rather increased the proportion

O=C1[C@H](Cc2ccccc2)N2C(=O)CCN(C(=O)NCc3ccccc3)[C@H]2CN1Cc1cccc2ccccc12 [IC-2]
number of cancer stem cells (CD44-positive cells) [1]: significantly less than that of the control | proportion of the CD90-expressing cells [2]: 13.5% | proportion of the EpCAM-expressing cells [3]: 51.1% | proportion of CD44^high cells (CD44^high DLD-1 cells): significantly decreased the proportion of CD44^high cells
